Strand notation (5' to 3'): a small letter for the sugar, then the base; units joined by * are phosphorothioate-linked, units joined directly phosphodiester-linked; [ ] holds rarer units or linkages, { } end groups; capitals alone tell only the bases. e = 2'-O-(2-methoxyethyl) (MOE); l = locked nucleic acid (LNA); [5mC] = 5-methylcytosine; d = 2'-deoxy (DNA)
Tested on: human ABCB11 mRNA
Experiment: ASO treatment of primary human hepatocytes (PHH), ABCB11 mRNA by RT-qPCR normalized to B2M
Assay type: cell-based
Settings: primary human hepatocytes; for ABCB11 mRNA FC (5 μM ASO vs. UNT): normalized to untreated PHHs (UNT); for ABCB11 FC mRNA (5 μM ASO vs. untreated): 5 μM ASO with PO-modifications, normalized to untreated hepatocytes
Procedure, shortened: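 Plated primary human hepatocytes were treated 4 h post-thaw with ASO (e.g., 1.25–10 μM; initial screen 5 μM) in medium containing 0.3 mg/ml Matrigel for 72 hrs. Total RNA was reverse-transcribed and ABCB11 mRNA measured by Taqman RT-qPCR, normalized to B2M, with fold change versus untreated PHHs.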

CO-7098 (eA*eT*e[5mC]eT*eG*eG*dA*dA*dA*dA*dT*dA*dA*dT*dG*d[5mC]*e[5mC]*eT*eT*eT*e[5mC]*eT)
ABCB11 mRNA FC (5 μM ASO vs. UNT): 1.04 fold change

CO-7101 (eA*eT*e[5mC]*eT*eG*lG*dA*dA*lA*dA*dT*dA*dA*lT*dG*d[5mC]*l[5mC]*eT*eT*eT*e[5mC]*eT; antisense)
ABCB11 mRNA FC (5 μM ASO vs. UNT): 1.165 fold change

CO-4055 (antisense eT*eT*eG*eA*eA*e[5mC]*e[5mC]*eT*eT*eT*eA*eG*eA*eA*eA*eA*eT*e[5mC]*eG*eT)
ABCB11 mRNA FC (5 μM ASO vs. UNT): 1.287 fold change

CO-4492 (antisense eG*eA*eT*eT*eT*eA*eA*eA*eG*eG*eA*e[5mC]*eT*eG*e[5mC]*eA*eT*eG*eG*e[5mC])
ABCB11 mRNA FC (5 μM ASO vs. UNT): 1.192 fold change

CO-7004 (antisense eG*eT*eG*eA*lG*eG*e[5mC]*eA*eT*l[5mC]*eA*eG*eG*eT*lA*eA*eG*eT*eT*e[5mC])
ABCB11 mRNA FC (5 μM ASO vs. UNT): 1.285 fold change

CO-11199 (antisense eT*eG*eT*eTeTeTeG*e[5mC]*eT*eT*eG*eG*eT*e[5mC]eAeAeG*eA*eG*eG)
ABCB11 FC mRNA (5 μM ASO vs. untreated): 0.97 fold change

CO-7171 (antisense eA*eG*eT*e[5mC]*eT*eT*eA*eT*eT*eT*eG*eG*e[5mC]*eG*eT*eT*eA*eT*eT*eA)
ABCB11 mRNA FC (5 μM ASO vs. UNT): 1.46 fold change

CO-4518 (antisense e[5mC]*eT*eA*e[5mC]*eT*eA*eG*eT*eT*eG*eT*eT*eA*e[5mC]*eA*e[5mC]*e[5mC]*eT*eT*eA)
ABCB11 mRNA FC (5 μM ASO vs. UNT): 0.981 fold change

CO-7033 (antisense eG*eA*eG*eA*e[5mC]*eA*eA*eA*eG*eA*eA*eT*e[5mC]*eG*e[5mC]*eT*eG*eT*eG*eG)
ABCB11 mRNA FC (5 μM ASO vs. UNT): 1.316 fold change

CO-7089 (eA*e[5mC]*e[5mC]*l[5mC]*e[5mC]*d[5mC]*d[5mC]*lT*d[5mC]*dA*d[5mC]*l[5mC]*dT*dT*dG*lG*eT*eT*e[5mC]*e[5mC]; antisense)
ABCB11 mRNA FC (5 μM ASO vs. UNT): 1.249 fold change

CO-7107 (eA*e[5mC]*eA*eT*eT*eT*eA*eG*eA*eG*eA*e[5mC]*eA*eA*eA*eG*eA*eA*eT*e[5mC]*eG*e[5mC]; antisense)
ABCB11 mRNA FC (5 μM ASO vs. UNT): 1.148 fold change

CO-11204 (antisense eT*eG*eT*eT*eTeT*eG*e[5mC]*eTeT*eG*eG*eTe[5mC]*eA*eA*eGeA*eG*eG)
ABCB11 FC mRNA (5 μM ASO vs. untreated): 1.15 fold change

CO-4059 (antisense eG*eT*eA*eA*eG*e[5mC]*eT*e[5mC]*eA*eG*eG*e[5mC]*eAeA*eA*eG*eG*eA*eG*eA)
ABCB11 mRNA FC (5 μM ASO vs. UNT): 1.186 fold change

CO-6968 (antisense eT*eG*eG*eA*eT*dG*dT*dA*dG*dA*dT*dG*dA*dA*dT*eG*eG*e[5mC]*eA*eA)
ABCB11 mRNA FC (5 μM ASO vs. UNT): 1.373 fold change

CO-12752 (antisense eG*eTeG*eA*eG*eGe[5mC]*eA*eT*e[5mC]eA*eG*eG*eTeA*eA*eG*eTeT*e[5mC])
ABCB11 FC mRNA (5 μM ASO vs. untreated): 0.99 fold change

CO-7016 (antisense eA*eG*eT*eG*eA*lG*dG*d[5mC]*lA*dT*d[5mC]*dA*dG*lG*dT*dA*lA*eG*eT*eT*e[5mC]*e[5mC])
ABCB11 mRNA FC (5 μM ASO vs. UNT): 1.278 fold change

CO-3993 (antisense eG*e[5mC]*e[5mC]*e[5mC]*e[5mC]*eT*eT*eG*eA*eA*eT*eA*eA*eT*eT*eT*eT*eT*eG*eT)
ABCB11 mRNA FC (5 μM ASO vs. UNT): 1 fold change

CO-4519 (antisense eA*eG*eA*e[5mC]*eT*eG*eG*e[5mC]*eA*eT*eGeT*eG*eG*e[5mC]*eT*eT*e[5mC]*eA*e[5mC])
ABCB11 mRNA FC (5 μM ASO vs. UNT): 1.061 fold change

CO-4039 (antisense eG*eG*eT*eT*eA*eT*eT*eG*e[5mC]*eT*e[5mC]*eT*eG*eA*eG*eT*eA*eT*eG*eT)
ABCB11 mRNA FC (5 μM ASO vs. UNT): 1.022 fold change

CO-4487 (antisense eG*e[5mC]*eA*eA*eG*eG*eT*e[5mC]*e[5mC]*eA*eG*eG*eG*eT*eG*eT*eA*eT*eT*e[5mC])
ABCB11 mRNA FC (5 μM ASO vs. UNT): 1.052 fold change

CO-6990 (antisense eT*eG*lG*eA*eT*lG*eT*eA*lG*eA*eT*lG*eA*eA*lT*eG*eG*l[5mC]*eA*eA)
ABCB11 mRNA FC (5 μM ASO vs. UNT): 1.16 fold change

CO-7000 (antisense eG*eT*lG*eA*eG*lG*e[5mC]*eA*lT*e[5mC]*eA*lG*eG*eT*lA*eA*eG*lT*eT*e[5mC])
ABCB11 mRNA FC (5 μM ASO vs. UNT): 1.203 fold change

CO-7182: derivative ASO with additional chemical modifications based on parent ASO CO-4529 (antisense eG*eT*eG*lG*eA*eG*e[5mC]*lA*eA*eA*e[5mC]*lT*eA*eG*eG*l[5mC]*eA*e[5mC]*eT*eG)
ABCB11 mRNA FC (5 μM ASO vs. UNT): 1.572 fold change

CO-7196 (eG*eG*eT*eG*eG*eA*eG*e[5mC]*eA*eA*eA*e[5mC]*eT*eA*eG*eG*e[5mC]*eA*e[5mC]*eT*eG*eA; antisense)
ABCB11 mRNA FC (5 μM ASO vs. UNT): 1.33 fold change

CO-3988 (antisense eA*eA*eA*eT*eG*e[5mC]*e[5mC]*e[5mC]*eA*eA*eG*eT*eT*eT*e[5mC]*eA*eT*eT*eG*e[5mC])
ABCB11 mRNA FC (5 μM ASO vs. UNT): 1.827 fold change

CO-7198 (eG*eG*eT*eG*eG*lA*dG*d[5mC]*lA*dA*dA*d[5mC]*dT*lA*dG*dG*l[5mC]*eA*e[5mC]*eT*eG*eA; antisense)
ABCB11 mRNA FC (5 μM ASO vs. UNT): 1.075 fold change

CO-4052 (antisense e[5mC]*e[5mC]*eA*eG*eG*eG*eT*eG*e[5mC]*eA*eA*eG*eA*eG*eT*eT*eG*eT*e[5mC]*eT)
ABCB11 mRNA FC (5 μM ASO vs. UNT): 1.054 fold change

CO-7152 (antisense eA*e[5mC]*e[5mC]*eT*eT*eA*eG*dG*dA*dG*dG*dA*dT*dT*dA*dT*dT*eT*eA*eA*e[5mC]*e[5mC]*eT*e[5mC])
ABCB11 mRNA FC (5 μM ASO vs. UNT): 1.28 fold change

CO-4043 (antisense eG*e[5mC]*e[5mC]*e[5mC]*eA*e[5mC]*eT*e[5mC]*eT*eG*e[5mC]*eT*e[5mC]*eA*eA*eT*eT*eT*eG*e[5mC])
ABCB11 mRNA FC (5 μM ASO vs. UNT): 1.934 fold change

CO-7017 (antisense eA*eA*eG*eT*eG*eA*eG*dG*d[5mC]*dA*dT*d[5mC]*dA*dG*dG*dT*dA*eA*eG*eT*eT*e[5mC]*e[5mC]*eT)
ABCB11 mRNA FC (5 μM ASO vs. UNT): 1.182 fold change

CO-4482 (antisense eT*eA*eA*e[5mC]*eT*eG*eG*eG*eA*eG*eT*eA*eT*eA*eG*eA*eG*eG*eA*e[5mC])
ABCB11 mRNA FC (5 μM ASO vs. UNT): 1.001 fold change

CO-7180: derivative ASO with additional chemical modifications based on parent ASO CO-4529 (antisense eG*eT*lG*eG*eA*lG*e[5mC]*eA*lA*eA*e[5mC]*lT*eA*eG*lG*e[5mC]*eA*l[5mC]*eT*eG)
ABCB11 mRNA FC (5 μM ASO vs. UNT): 2.04 fold change

CO-7105 (eT*eA*eT*e[5mC]*eT*dG*dG*lA*dA*dA*lA*dT*dA*lA*dT*dG*l[5mC]*d[5mC]*dT*eT*eT*e[5mC]*eT*eA; antisense)
ABCB11 mRNA FC (5 μM ASO vs. UNT): 1.002 fold change

CO-7059 (eT*e[5mC]*eT*lG*eG*dA*dA*lA*dA*dT*dA*lA*dT*dG*d[5mC]*l[5mC]*eT*eT*eT*e[5mC]; antisense)
ABCB11 mRNA FC (5 μM ASO vs. UNT): 1.023 fold change

CO-11241 (antisense eG*eTeG*eG*lA*eGe[5mC]*eA*eA*lAe[5mC]*eT*eA*eGlG*e[5mC]*eA*e[5mC]eT*eG)
ABCB11 FC mRNA (5 μM ASO vs. untreated): 1.71 fold change

CO-7066 (eT*e[5mC]*eT*eG*eG*lA*eA*eA*eA*eT*lA*eA*eT*eG*e[5mC]*l[5mC]*eT*eT*eT*e[5mC]; antisense)
ABCB11 mRNA FC (5 μM ASO vs. UNT): 1.2 fold change

CO-7032 (antisense eA*e[5mC]*eA*eA*eA*eG*eA*eA*eT*e[5mC]*eG*e[5mC]*eT*eG*eT*eG*eG*e[5mC]*eA*eG)
ABCB11 mRNA FC (5 μM ASO vs. UNT): 1.093 fold change

CO-7209 (eT*eT*eT*eG*eG*d[5mC]*dG*eT*dT*dA*eT*dT*dA*eA*dT*dT*e[5mC]*dT*dA*e[5mC]*eA*eG*eA*eG; antisense)
ABCB11 mRNA FC (5 μM ASO vs. UNT): 1.262 fold change

CO-7003 (antisense eG*eT*eG*eA*eG*lG*e[5mC]*eA*eT*e[5mC]*lA*eG*eG*eT*eA*lA*eG*eT*eT*e[5mC])
ABCB11 mRNA FC (5 μM ASO vs. UNT): 1.066 fold change

CO-7103 (eT*eA*eT*e[5mC]*eT*eG*eG*eA*eA*eA*eA*eT*eA*eA*eT*eG*e[5mC]*e[5mC]*eT*eT*eT*e[5mC]*eT*eA; antisense)
ABCB11 mRNA FC (5 μM ASO vs. UNT): 1.006 fold change

CO-7160 (antisense eT*eG*eT*eG*eG*eA*eG*eG*eT*eG*eG*eA*eG*e[5mC]*eA*eA*eA*e[5mC]*eT*eA)
ABCB11 mRNA FC (5 μM ASO vs. UNT): 1.312 fold change

CO-7154 (antisense eA*e[5mC]*e[5mC]*eT*eT*dA*dG*eG*dA*dG*eG*dA*dT*eT*dA*dT*eT*dT*dA*eA*e[5mC]*e[5mC]*eT*e[5mC])
ABCB11 mRNA FC (5 μM ASO vs. UNT): 1.274 fold change

CO-4495 (antisense eT*eG*eG*eT*eA*eT*e[5mC]*e[5mC]*eA*eT*eT*e[5mC]*eA*e[5mC]*eA*eA*eG*eG*eT*eG)
ABCB11 mRNA FC (5 μM ASO vs. UNT): 1.07 fold change

CO-4526 (antisense eG*e[5mC]*eT*eT*eG*eT*eG*eA*eT*eG*eT*e[5mC]*e[5mC]*eA*eG*eA*eT*eG*eA*e[5mC])
ABCB11 mRNA FC (5 μM ASO vs. UNT): 1.048 fold change

CO-11221 (antisense eG*eTlG*eGlA*eGl[5mC]*eAlA*eAl[5mC]*eTlA*eGlG*e[5mC]lA*e[5mC]eT*eG)
ABCB11 FC mRNA (5 μM ASO vs. untreated): 2.00 fold change

CO-7056 (antisense eT*eG*e[5mC]*eT*e[5mC]*eA*e[5mC]*e[5mC]*e[5mC]*e[5mC]*e[5mC]*e[5mC]*eT*e[5mC]*eA*e[5mC]*e[5mC]*eT*eT*eG)
ABCB11 mRNA FC (5 μM ASO vs. UNT): 1.491 fold change

CO-12751 (antisense eG*eT*eG*eA*eGeG*e[5mC]*eA*eTe[5mC]*eA*eG*eGeT*eA*eA*eGeT*eT*e[5mC])
ABCB11 FC mRNA (5 μM ASO vs. untreated): 0.93 fold change

CO-12755 (antisense eG*eT*eGeA*eGeG*e[5mC]eA*eTe[5mC]*eAeG*eGeT*eAeA*eGeT*eT*e[5mC])
ABCB11 FC mRNA (5 μM ASO vs. untreated): 0.99 fold change

CO-7019 (antisense eA*eA*eG*eT*eG*dA*dG*eG*d[5mC]*dA*eT*d[5mC]*dA*eG*dG*dT*eA*dA*dG*eT*eT*e[5mC]*e[5mC]*eT)
ABCB11 mRNA FC (5 μM ASO vs. UNT): 1.284 fold change

Reference: patent US20250320496A1, “MODULATION OF ABCB11 GENE TRANSCRIPTION USING ANTISENSE OLIGONUCLEOTIDES TARGETING REGULATORY RNAS” (CAMP4 Therapeutics Corporation, priority 2022, published 2025)
